The test system of one assay is CD269 (BCMA). Nature of the assay: Flow cytometry of surface protein expression, NCI-H929 cell line stimulated with bryostatin-1. The format is cell-based, human. The note with it: NCI-H929 (MM) cells; bryostatin-1 0.001-1 nM, 24 or 72 hours; FIG. 1C. From the text:
(§1) Bryostatin-1 has been examined in numerous tumor cell lines representing various hematological tumor types. Surface protein target expression was examined by flow cytometry with human cell lines stimulated with different concentrations of bryostatin-1. Human cell lines representative of different hematological disease indications of leukemia/lymphoma (Toledo, REH, DB), multiple myeloma (NCI-H929, U266B1, RPMI8226), and acute myeloid leukemia (Kasumi-1, AML-193, THP1) were used as target cell lines. Each cell line was treated with bryostatin-1 at 0.001, 0.01, 0.1, or 1 nM for either 24 hours or 72 hours in duplicate prior to measuring the surface molecule expression, quantitatively, of the following protein antigens by flow cytometry: CD19, CD20, CD22, CD33, CD37, CD38, CD123, CD269 (BCMA), and isotype control. Bryostatin-1 caused an upregulation of some antigens and not others.
(A flow cytometer gives signals particle by particle.)

Assay [1] deals with tumor cells derived from relapsed, low-expressing TAA patients. Nature of the assay: PDX model with CD22-directed CAR-T and bryostatin-1. The format is in vivo. The conditions noted are these: bryostatin-1 administered on Day 45 after CD22-directed CAR-T cells on Day 42.
For assay [2], the system named is CD22. The assay can be described thus: Flow cytometry of surface protein expression, REH cell line stimulated with bryostatin-1. The conditions noted are these: REH (ALL) cells; bryostatin-1 0.001-1 nM, 24 or 72 hours; FIG. 1A. It is filed as cell-based, human.
Description: as §1

Another assay deals with CD123. The assay can be described thus: Flow cytometry of surface protein expression, AML193 cell line stimulated with bryostatin-1. The format is cell-based, human. The conditions noted are these: AML193 (AML) cells; bryostatin-1 0.001-1 nM, 24 or 72 hours; FIG. 1B.
Description: as §1

The subject of another assay is CD19. Nature of the assay: Surface antigen expression on primary B cells from healthy donors, MM or CLL patients. It is filed as cell-based, human. The conditions noted are these: 72 h exposure. The source says:
(§2) The ability of bryostatin-1 at multiple concentrations to modulate the surface expression of multiple antigens (CD5, CD19, CD20, CD22, CD37, CD200/OX2 and CD269/BCMA) at two time points on primary B cells from healthy donors (2 donors) or patients with multiple myeloma (2 patients, MM) or chronic lymphocytic leukemia (4 patients, CLL) was investigated.

In a further assay the test system is CD5. Described as above. The conditions noted are these: 24 h exposure. The format is cell-based, human.
Description: as §2

Assay [3] has as its system CD22. Described as above. The format is cell-based, human.
Description: as §2

The mark [4] stands for this setting: primary B cells of CLL patients.
[5] abbreviates: primary B cells of healthy donors.

On to `CCC/C=C/C=C/C(=O)O[C@H]1/C(=C/C(=O)OC)C[C@H]2C[C@H]([C@@H](C)O)OC(=O)C[C@H](O)C[C@@H]3C[C@H](OC(C)=O)C(C)(C)[C@](O)(C[C@@H]4C/C(=C/C(=O)OC)C[C@H](/C=C/C(C)(C)[C@]1(O)O2)O4)O3` [bryostatin-1, Bryostatin-1], for which the “CD269 (BCMA) cell surface expression” value with CD269 (BCMA) is listed as “upregulated”. The Tumor response result in assay [1] is on record as “induced the tumors to respond”. Also, the “CD22 cell surface expression” value with CD22 [2] is “upregulated”. The “CD123 cell surface expression” value in the assay with CD123 is “upregulated”. The CD19 expression entry is on record as “increases” in the assay on CD19 (setting [4]), “not” with CD19 (primary B cells of MM patients) and “increases” with CD19 (setting [5]). Besides, the values for the CD5 expression entry in the assay with CD5 (setting [4]), in the assay with CD5 (primary B cells of MM patients) and in the assay with CD5 (setting [5]) were “not”, “increases” and “not”, respectively. Moreover, the CD22 expression entry with CD22 [3] (setting [4]) is listed as “upregulated”; in the assay with CD22 [3] (primary B cells of MM patients) it was “not”; in the assay on CD22 [3] (setting [5]) it was “upregulated”.

The values above are taken from patent publication US20240058302A1, “METHOD OF INDUCTION OF TUMOR ASSOCIATED ANTIGENS WITH BRYOSTATIN” (BryoLogyx Inc., priority 2019, published 2024).
